Assay results taken from paper PMC9495348, “Polyfunctionalized α-Phenyl-tert-butyl(benzyl)nitrones: Multifunctional Antioxidants for Stroke Treatment” (Antioxidants, 2022).

What was measured:
[1] = Inhibition of linoleic acid peroxidation (ILPO) induced by AAPH; settings: compounds assayed at 100 µM; n.a. = not active
[2] = ABTS+ decolorization assay in ethanolic solution; settings: compounds assayed at 100 µM; n.a. = not active
[3] = DPPH radical-scavenging assay; settings: compounds assayed at 100 µM, DPPH 70 µM, 90 min; no = no activity
Experimental: The assay was performed as previously described by incubating compounds at a concentration of 100 µM in the presence of 2,2-diphenyl-1-picrylhydrazyl radical (DPPH, 70 µM) in methanol for 90 min, protected from sun light. The absorbance at 517 nm was then determined using a Synergy™ H4 microplate reader (BioTek Instruments, Inc., Winooski, VT, USA). The experiments were performed in triplicate, and the blank (compound without DPPH) was substracted. The percentage of DPPH free radicals was calculated using the equation DPPH free radicals (%) = ((A0 − A1)/A0) × 100, where A0 is the absorbance of MeOH and A1 is the absorbance of the compound. Trolox and resveratrol were used as positive controls.

[4] = Competition of the tested compounds with DMSO for hydroxyl radicals; settings: compounds assayed at 100 µM; n.a. = not active; no = no activity
soybean lipoxygenase = molecular target: T1, soybean lipoxygenase (Glycine max, UniProt P08170); assay: In vitro inhibition of soybean LOX; assay type: biochemical; settings: for IC50: soybean LOX, sodium linoleate 0.1 mM
T1 construct: purchased Aldrich Chemical Co. Milwaukee, WI, (USA)
T1 sequence (P08170 1-839): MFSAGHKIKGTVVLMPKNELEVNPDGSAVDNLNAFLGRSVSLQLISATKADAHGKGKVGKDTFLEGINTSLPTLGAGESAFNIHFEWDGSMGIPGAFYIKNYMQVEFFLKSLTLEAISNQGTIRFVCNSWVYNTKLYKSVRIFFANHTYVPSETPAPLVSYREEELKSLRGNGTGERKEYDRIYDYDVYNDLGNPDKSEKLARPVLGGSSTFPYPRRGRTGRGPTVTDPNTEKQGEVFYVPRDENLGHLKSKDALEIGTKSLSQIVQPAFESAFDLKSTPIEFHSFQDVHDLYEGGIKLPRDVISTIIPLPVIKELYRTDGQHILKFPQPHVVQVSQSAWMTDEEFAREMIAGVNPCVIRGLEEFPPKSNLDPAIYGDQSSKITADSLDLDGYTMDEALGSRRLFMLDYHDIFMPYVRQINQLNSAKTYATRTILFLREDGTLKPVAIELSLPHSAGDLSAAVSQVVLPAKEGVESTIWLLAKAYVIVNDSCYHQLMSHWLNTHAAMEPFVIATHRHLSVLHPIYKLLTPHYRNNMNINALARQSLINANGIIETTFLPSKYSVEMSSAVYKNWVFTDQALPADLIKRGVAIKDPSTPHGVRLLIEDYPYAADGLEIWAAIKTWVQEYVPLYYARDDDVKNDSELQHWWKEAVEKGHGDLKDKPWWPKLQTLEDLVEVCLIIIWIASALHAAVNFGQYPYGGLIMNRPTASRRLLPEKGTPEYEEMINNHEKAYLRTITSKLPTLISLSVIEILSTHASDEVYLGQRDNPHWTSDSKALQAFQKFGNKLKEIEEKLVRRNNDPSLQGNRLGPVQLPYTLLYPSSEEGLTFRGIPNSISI
Experimental: The in vitro study was performed as previously described. The compounds were incubated at room temperature with sodium linoleate (0.1 mM) and 0.2 mL of soybean lipoxygenase solution (1/9 × 10^–4 w/v in phosphate buffer saline). The method was based on the conversion of sodium linoleate to 13-hydroperoxylinoleic acid, which was detected by measuring absorbance at 234 nm. […] To determine the IC50 values, serial dilutions of compounds were used. Blank determination served as a negative control.

Aβ1–42 = molecular target: T2, Aβ1–42 (Homo sapiens, UniProt P05067); assay: Inhibition of Aβ1–42 aggregation, Thioflavin-T assay; assay type: biochemical; settings: 10 µM compound and 1.5 µM Aβ1–42, ThT assay
T2 construct: HFIP-pretreated Aβ1–42 peptide Merck Millipore, Darmstadt, Germany; purchased Merck Millipore, Darmstadt, Germany
Experimental: Thioflavin-T (ThT) assay was performed to investigate the effect of the compounds on the aggregation of Aβ1–42 (HFIP-pretreated Aβ1–42 peptide Merck Millipore, Darmstadt, Germany). Prior to the incubations, 1 mM Aβ1–42 peptide stock solution in DMSO was diluted in 150 mM HEPES buffer (pH = 7.4, 150 mM NaCl) to obtain a concentration of 7.5 μM. Subsequently, 20 µL of Aβ1–42 ([…]) was mixed with the compounds (10 µM, final concentration) on black-walled 96-well plates and diluted with ThT solution (14.3 μM stock solution in HEPES-buffered solution; 10 μM final concentration). The final volume of the mixture was 100 μL, and the DMSO concentration was always 3% (v/v). Each sample was prepared in four technical replicates. ThT fluorescence (λex = 440 nm, λem = 490 nm) was measured using a microplate reader (Synergy™ H4, BioTek Instruments, Inc., Winooski, VT, USA) for 36–48 h. Inhibition of Aβ1–42 aggregation was expressed as the percent inhibition (% inh = (1 − Fi/F0) × 100), where Fi is the increase in fluorescence of compound-treated Aβ1–42, and F0 is the increase in fluorescence of non-treated Aβ1–42.

[5] = tested on: SH-SY5Y neuroblastoma cells; assay: Neuroprotection against okadaic acid, MTT cell viability; assay type: cell-based; settings: okadaic acid 20 nM for 20 h, compounds 0.3–10 µM
[6] = compounds assayed at 100 µM, n.a. = not active, no = no activity under the experimental conditions

T2 sequence (P05067 672-713): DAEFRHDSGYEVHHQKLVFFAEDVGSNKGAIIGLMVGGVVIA

| SMILES | ILPO (%) [1] | ABTS+ (%) [2] | DPPH [3] | OH Scav. Capacity (%) [4] | inhibition at 100 µM (soybean lipoxygenase; [6]) | IC50 (soybean lipoxygenase) | LOX Inhibition (%) (soybean lipoxygenase; [6]) | inhibition at 10 µM (Aβ1–42) | neuroprotective effect (augmented OA-reduced cell viability) [5] |
| --- | --- | --- | --- | --- | --- | --- | --- | --- | --- |
| [O-]/[N+](=C\c1cccc(OCCCN2CCCCC2)c1)Cc1ccccc1 [nitrone 3, (Z)-N-Benzyl-1-(3-(3-(piperidin-1-yl)propoxy)phenyl)methanimine oxide] | 29% | 31% | 2 | – | – | – | – | – | – |
| Cc1c(C)c2c(c(C)c1O)CCC(C)(C(=O)O)O2 (centres unmarked) [Trolox, reference compound] | 93% | 91% | – | 88% | – | – | – | – | – |
| C#CCN1CCN(CCCOc2ccc(/C=[N+](\[O-])Cc3ccccc3)cc2)CC1 [nitrone 7, (Z)-N-Benzyl-1-(4-(3-(4-(prop-2-yn-1-yl)piperazin-1-yl)propoxy)phenyl) methanimine oxide] | – | 28% | 0 | – | 27.2% | – | – | – | – |
| C#CCN1CCN(CCCOc2cccc(/C=[N+](/[O-])Cc3ccccc3)c2)CC1 [nitrone 9, (E)-N-Benzyl-1-(3-(3-(4-(prop-2-yn-1-yl)piperazin-1-yl)propoxy)phenyl)methanimine oxide] | – | – | 1 | 81% | – | 100 µM | – | – | – |
| C#CCN1CCN(CCCOc2cccc(/C=[N+](\[O-])C(C)(C)C)c2)CC1 [nitrone 10, (Z)-N-tert-Butyl-1-(3-(3-(4-(prop-2-yn-1-yl)piperazin-1-yl)propoxy)phenyl) methanimine oxide] | 31% | 13% | 0 | 20% | – | – | no | – | – |
| CC(C)(C)/[N+]([O-])=C/c1cccc(OCCCN2CCCCC2)c1 [nitrone 4, (Z)-N-tert-Butyl-1-(3-(3-(piperidin-1-yl)propoxy)phenyl)methanimine oxide] | 45% | 23% | 0 | 54% | 37% | – | – | – | – |
| CC(C)(C)/[N+]([O-])=C/c1ccccc1 [PBN, α-phenyl-N-tert-butylnitrone, reference compound] | 11% | 5% | no | no | 23% | – | – | – | – |
| CC(C)(C)/[N+]([O-])=C/c1ccccc1OCCCN1CCCCC1 [nitrone 6, (Z)-N-tert-Butyl-1-(2-(3-(piperidin-1-yl)propoxy)phenyl)methanimine oxide] | – | – | 0 | 13% | 39% | – | – | – | – |
| C#CCN1CCN(CCCOc2ccc(/C=[N+](\[O-])C(C)(C)C)cc2)CC1 [nitrone 8, (Z)-N-tert-Butyl-1-(4-(3-(4-(prop-2-yn-1-yl)piperazin-1-yl)propoxy)phenyl) methanimine oxide] | – | 10% | 0 | 78% | 23.3% | – | – | – | – |
| [O-]/[N+](=C\c1ccc(OCCCN2CCCCC2)cc1)Cc1ccccc1 [nitrone 1, (Z)-N-Benzyl-1-(4-(3-(piperidin-1-yl)propoxy)phenyl)methanimine oxide] | – | 27% | 0 | 7% | – | 60 µM | – | 42.2 ± 5.7% | statistically significant at 10 µM |
| [O-]/[N+](=C\c1ccccc1OCCCN1CCCCC1)Cc1ccccc1 [nitrone 5, (Z)-N-Benzyl-1-(2-(3-(piperidin-1-yl)propoxy)phenyl)methanimine oxide] | – | 19% | 0 | 9% | – | 10 µM | – | – | – |
| CC(C)(C)/[N+]([O-])=C/c1ccc(OCCCN2CCCCC2)cc1 [nitrone 2, (Z)-N-tert-Butyl-1-(4-(3-(piperidin-1-yl)propoxy)phenyl)methanimine oxide] | – | – | 0 | 54% | – | – | – | – | – |
| C#CCN1CCN(CCCOc2ccccc2/C=[N+](\[O-])C(C)(C)C)CC1 [nitrone 12, (Z)-N-tert-Butyl-1-(2-(3-(4-(prop-2-yn-1-yl)piperazin-1-yl)propoxy)phenyl) methanimine oxide] | 31% | 13% | – | 9.8% | 25% | – | – | – | – |
